As usually defined, the IC50 is the point on the concentration scale where inhibition reaches its midpoint. As a reminder, the melting point is the temperature of the solid-liquid transition. As usually defined, the inhibition is the change of the read-out against control, counted positive when it falls.

Where a name gives a salt, the structure may show the parent alone. Read-outs that look alike come from different tables or passages of the source.

These results are taken from patent US8338450B2, “Compounds as dipeptidyl peptidase IV (DPP IV) inhibitors” (Lupin Limited, priority 2007, dated 2012).

For one data set, the target named is T1, human recombinant DPP-IV (Homo sapiens, UniProt P27487).
T1 construct: purchased R&D Systems, USA (or produced in-house)
Put plainly: Inhibition of human recombinant DPP-IV (Gly-Pro-AMC hydrolysis, fluorometric). The data set is classed as biochemical. Particulars: for IC50: human recombinant DPP-IV, 50 μM Gly-Pro-AMC, 30 min at 30° C.; for inhibition at 1 µM: compound 1000 nM, relative to vehicle controls, read-out: % inhibition at 1000 nM. A digest of the protocol:
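Enzyme (10 ng) was preincubated 15 min at 30° C. with compound (10 and 100 nM screen; 8 concentrations 0.1-1000 nM) in Tris-HCl pH 7.4, NaCl, KCl, BSA. 50 μM Gly-Pro-AMC was added for 30 min at 30° C. and AMC fluorescence was read (ex 360/em 460 nm). Results are given as % inhibition versus vehicle or as IC50.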

The target of the next data set is T2, plasma DPP-IV (Rattus norvegicus, UniProt P14740).
T2 construct: from tissue; host or cells: EDTA-plasma of male Wistar rats dosed orally
As to the kind of experiment: Measurement of plasma DPP-IV activity in male Wistar rats after single oral dose. As to conditions: 10 mg/kg, p.o.; for inhibition at 10 mg/kg: rat, po. The data set is classed as in vivo. How it is done: Overnight-fasted male animals were administered either vehicle or single oral doses of compounds. Blood samples were withdrawn from retro-bulbar venous plexus under anesthesia at several time points up to 24 h post-dose. EDTA-plasma was separated and DPP-IV activity was measured using a fluorometric assay. Assays were carried out in 96-well flat-bottom black microwell plates. A typical reaction contained 25 μl plasma, 50 μl of 50 μM substrate (Gly-Pro-AMC) and 25 μl assay buffer (25 mM Tris-HCl, pH 7.4, 140 mM NaCl, 10 mM KCl and 1% BSA) in a total reaction volume of 100 μl. Plasma samples were incubated with the substrate for 30 min at 30° C., following which the fluorescence was measured in a microplate fluorescence redaer (POLARstar Galaxy), with excitation and emission wavelengths set at 360 nm and 460 nm, respectively. Percent inhibition in plasma DPP-IV activity due to compounds was calculated by comparing with plasma from vehicle-treated animals.

T1 sequence (P27487 whole entry): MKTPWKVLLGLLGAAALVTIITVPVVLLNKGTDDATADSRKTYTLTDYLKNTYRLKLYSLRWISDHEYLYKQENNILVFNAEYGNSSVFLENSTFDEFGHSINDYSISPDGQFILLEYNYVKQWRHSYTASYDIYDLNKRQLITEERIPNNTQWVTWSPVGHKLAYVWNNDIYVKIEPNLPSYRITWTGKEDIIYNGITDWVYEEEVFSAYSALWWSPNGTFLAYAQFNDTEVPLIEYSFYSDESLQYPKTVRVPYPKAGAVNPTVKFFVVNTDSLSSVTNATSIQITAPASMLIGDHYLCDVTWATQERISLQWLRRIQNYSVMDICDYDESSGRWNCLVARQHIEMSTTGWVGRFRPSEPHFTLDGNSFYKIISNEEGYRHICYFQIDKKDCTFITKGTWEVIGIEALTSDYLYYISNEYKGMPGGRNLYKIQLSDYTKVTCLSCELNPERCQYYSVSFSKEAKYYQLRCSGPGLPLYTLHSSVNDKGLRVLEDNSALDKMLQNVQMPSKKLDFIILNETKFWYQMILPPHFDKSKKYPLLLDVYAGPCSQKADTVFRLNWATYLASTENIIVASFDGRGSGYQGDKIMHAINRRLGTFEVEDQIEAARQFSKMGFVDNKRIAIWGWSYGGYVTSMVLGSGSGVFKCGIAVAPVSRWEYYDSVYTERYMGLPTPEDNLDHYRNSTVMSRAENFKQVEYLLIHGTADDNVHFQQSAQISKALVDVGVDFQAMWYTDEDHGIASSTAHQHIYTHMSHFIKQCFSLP
T2 sequence (P14740 37-767 limits assumed): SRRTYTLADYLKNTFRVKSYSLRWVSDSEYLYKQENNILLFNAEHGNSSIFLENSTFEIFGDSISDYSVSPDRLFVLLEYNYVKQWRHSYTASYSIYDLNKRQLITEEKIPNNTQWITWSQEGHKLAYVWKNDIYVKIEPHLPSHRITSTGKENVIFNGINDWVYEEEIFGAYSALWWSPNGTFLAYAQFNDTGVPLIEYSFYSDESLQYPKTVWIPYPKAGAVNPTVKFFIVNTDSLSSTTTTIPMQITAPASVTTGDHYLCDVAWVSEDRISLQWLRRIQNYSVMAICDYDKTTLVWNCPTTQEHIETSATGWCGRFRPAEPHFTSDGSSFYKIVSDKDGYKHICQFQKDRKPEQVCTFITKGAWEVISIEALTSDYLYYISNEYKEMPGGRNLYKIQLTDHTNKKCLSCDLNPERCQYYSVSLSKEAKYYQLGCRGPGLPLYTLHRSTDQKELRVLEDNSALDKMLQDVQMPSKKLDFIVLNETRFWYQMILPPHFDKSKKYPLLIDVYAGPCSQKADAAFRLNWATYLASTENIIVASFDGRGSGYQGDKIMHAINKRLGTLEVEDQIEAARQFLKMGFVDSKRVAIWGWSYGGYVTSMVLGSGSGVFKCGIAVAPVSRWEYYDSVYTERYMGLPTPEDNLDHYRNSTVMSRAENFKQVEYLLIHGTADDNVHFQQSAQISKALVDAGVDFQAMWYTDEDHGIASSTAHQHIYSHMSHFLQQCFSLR

In the case of `N#C[C@@H]1CCCN1C(=O)[C@@H](N)C1CC2CCC(C1)N2C(=O)c1ccc(C(F)(F)F)cc1.O=C(O)C(F)(F)F` (stereo partly drawn) [Compound 2, (2S)-1-{(2S)-2-Amino-2-[8-(4-trifluoromethylbenzoyl)-8-aza-bicyclo[3.2.1]oct-3-yl]-exo-ethanoyl}-pyrrolidin-2-carbonitrile trifluoroacetic acid salt], on human recombinant DPP-IV, the IC50 came out at 1.3 nM. Moreover, the “Plasma DPP-IV Inhibition (%) 4 h” value at plasma DPP-IV (4 h post-dose) turned out to be 82%. Further, on plasma DPP-IV (6 h post-dose), the “Plasma DPP-IV Inhibition (%) 6 h” value is 52%. Besides, the “Plasma DPP-IV Inhibition (%) 8 h” value on plasma DPP-IV (8 h post-dose) is 45%.
With `NC(=O)[C@@H]1C[C@@H]2C[C@@H]2N1C(=O)[C@@H](N)C1CC2CCC(C1)N2C(=O)c1ccc2c(c1)OCO2` (stereo partly drawn) (as salt: salt) [Compound 45, (1S,3S,5S)-2-{(2S)-2-Amino-2-[8-(benzo-[1,3]dioxole-5-carbonyl)-8-aza-bicyclo[3.2.1]oct-3-yl]-exo-ethanoyl}-2-azabicyclo[3.1.0]-hexane-3-carboxamide trifluoro acetic acid salt], the melting point lay in the range of 154 to 156 °C.
`C#C[C@H]1CC[C@@H](C#N)N1C(=O)[C@@H](N)C1CC2CCC(C1)N2C(=O)c1ccc(C(F)(F)F)cc1` (stereo partly drawn) (as salt: salt) [Compound 63, (2S,5R)-1-{(2S)-2-Amino-2-[8-(4-trifluoromethyl-benzoyl)-8-aza-bicyclo[3.2.1]oct-3-yl]-exo-ethanoyl}-5-ethynyl-pyrrolidin-2-carbonitrile trifluoro acetic acid salt] gave a melting point of 160 to 163 °C.
Consider `N#C[C@@H]1C[C@@H]2C[C@@H]2N1C(=O)[C@@H](N)[C@@H]1C[C@H]2CC[C@@H](C1)N2C(=O)c1ccncc1.O=C(O)C(F)(F)F` [Compound 25, (1S,3S,5S)-2-{(2S)-2-Amino-2-[8-(pyridine-4-carbonyl)-8-aza-bicyclo[3.2.1]oct-3-yl]-exo-ethanoyl}-2-azabicyclo[3.1.0]hexane-3-carbonitrile trifluoroacetic acid salt], for which the IC50 at human recombinant DPP-IV was 3.61 nM. Further, at plasma DPP-IV (4 h post-dose), the “Plasma DPP-IV Inhibition (%) 4 h” value is 68%. At plasma DPP-IV (6 h post-dose), the “Plasma DPP-IV Inhibition (%) 6 h” value stood at 49%. In addition, on plasma DPP-IV (8 h post-dose), the “Plasma DPP-IV Inhibition (%) 8 h” value is given as 51%.
Turning to `N[C@H](C(=O)N1CCSC1)C1CC2CCC(C1)N2C(=O)c1ccc(C(F)(F)F)cc1` (stereo partly drawn) (as salt: trifluoroacetic acid salt) [Compound 21, 3-{(2S)-2-Amino-2-[8-(4-trifluoromethyl-benzoyl)-8-aza-bicyclo[3.2.1]-oct-3-yl]-exo-ethanoyl}-1,3-thiazolidin trifluoroacetic acid salt], the melting point was in the range of 123 to 125 °C.
`C#C[C@H]1CC[C@@H](C#N)N1C(=O)[C@@H](N)C1CC2CCC(C1)N2C(=O)c1ccnc(F)c1` (stereo partly drawn) (as salt: salt) [Compound 66, (2S,5R)-1-{(2S)-2-Amino-2-[8-(2-fluoropyridin-4-carbonyl)-8-aza-bicyclo[3.2.1]-oct-3-yl]-exo-ethanoyl}-5-ethynyl-pyrrolidin-2-carbonitrile trifluoro acetic acid salt] had a melting point of 199 to 200 °C.
In turn, `Cl.N#C[C@@H]1C[C@H](F)CN1C(=O)[C@@H](N)C1CC2CCC(C1)N2C(=O)c1ccc(C(F)(F)F)cc1` (stereo partly drawn) [Compound 15, (2S,4S)-1-{(2S)-2-Amino-2-[8-(4-trifluoromethyl-benzoyl)-8-aza-bicyclo[3.2.1]oct-3-yl]-exo-ethanoyl}-4-fluoro-pyrrolidine-2-carbonitrile hydrochloride salt] returned a melting point of 168 to 170 °C. For the same compound, the IC50 on human recombinant DPP-IV is 1.72 nM.
On to `N[C@H](C(=O)N1CCC[C@H]1C(=O)O)C1CC2CCC(C1)N2C(=O)c1ccc(C(F)(F)F)cc1` (stereo partly drawn) (as salt: trifluoroacetic acid salt) [Compound 11, (2S)-1-{(2S)-2-amino-2-[8-(4-trifluoromethyl-benzoyl)-8-aza-bicyclo[3.2.1]-oct-3-yl]-exo-ethanoyl}-pyrrolidin-2-carboxylic acid trifluoroacetic acid salt], for which the melting point lay within 161 to 163 °C.
As for `N#C[C@H]1CSCN1C(=O)[C@@H](N)C1CC2CCC(C1)N2C(=O)c1ccc(C(F)(F)F)cc1` (stereo partly drawn) (as salt: salt) [Compound 20, (4S)-3-{(2S)-2-Amino-2-[8-(4-trifluoromethyl-benzoyl)-8-aza-bicyclo[3.2.1]oct-3-yl]-exo-ethanoyl}-thiazolidin-4-carbonitrile trifluoroacetetic acid salt], the melting point is 159 to 161 °C.
Consider `N[C@H](C(=O)N1CC(F)C1)C1CC2CCC(C1)N2C(=O)c1ccncc1F` (stereo partly drawn) (as salt: trifluoroacetic acid salt) [Compound 62, {(2S)-2-Amino-2-[8-(3-fluoropyridine-4-carbonyl)-8-aza-bicyclo[3.2.1]-oct-3-yl]-exo-ethanoyl}-3-fluoroazetidine trifluoroacetic acid salt], for which the melting point was 90 to 93 °C.
Same read-out and setting: the same measure for `N#C[C@@H]1CCCN1C(=O)[C@@H](N)C1CC2CCC(C1)N2` (stereo partly drawn) (as salt: salt) [Compound 8, (2S)-1-{(2S)-2-Amino-2-[8-aza-bicyclo[3.2.1]oct-3-yl]-exo-ethanoyl}-pyrrolidin-2-carbonitrile trifluoro acetic acid salt]: 143 to 145 °C; for `N[C@H](C(=O)N1[C@H](C(=O)O)C[C@@H]2C[C@@H]21)C1CC2CCC(C1)N2C(=O)c1ccc2c(c1)OCO2` (stereo partly drawn) (as salt: hydrochloride) [Compound 46, (1S,3S,5S)-2-{(2S)-2-Amino-2-[8-(benzo[1,3]-dioxole-5-carbonyl)-8-aza-bicyclo[3.2.1]-oct-3-yl]-exo-ethanoyl}-2-azabicyclo[3.1.0]hexane-3-carboxylic acid hydrochloride]: 280 °C (dec.).
Consider `N#C[C@@H]1CCCN1C(=O)[C@@H](N)C1CC2CCC(C1)N2C(=O)c1cc(F)c(F)cc1F` (stereo partly drawn) [Compound 1, (2S)-1-{(2S)-2-Amino-2-[8-(2,4,5-trifluorobenzoyl)-8-aza-bicyclo[3.2.1]oct-3-yl]-exo-ethanoyl}-pyrrolidin-2-carbonitrile trifluoroacetic acid salt], for which, at human recombinant DPP-IV, the IC50 worked out at 2.2 nM. Also, the inhibition at 10 mg/kg on plasma DPP-IV (4 h post-dose, read-out: Plasma DPP-IV Inhibition (%) 4 h) is 85%; on plasma DPP-IV (6 h post-dose, read-out: Plasma DPP-IV Inhibition (%) 6 h), 56%; at plasma DPP-IV (8 h post-dose, read-out: Plasma DPP-IV Inhibition (%) 8 h), 44%.
In the case of `N#C[C@@H]1C[C@@H]2C[C@@H]2N1C(=O)[C@@H](N)C1CC2CCC(C1)N2C(=O)c1ccnc(F)c1` (stereo partly drawn) (as salt: salt) [Compound 28, (1S,3S,5S)-2-{(2S)-2-amino-2-[8-(2-fluoropyridine-4-carbonyl)-8-aza-bicyclo[3.2.1]-oct-3-yl]-exo-ethanoyl}-2-azabicyclo[3.1.0]-hexane-3-carbonitrile trifluoro acetic acid salt], the melting point lay within 112 to 115 °C.
With `COC(=O)[C@@H]1CCCN1C(=O)[C@@H](N)C1CC2CCC(C1)N2C(=O)c1ccc(C(F)(F)F)cc1` (stereo partly drawn) [Compound 10, Methyl (2S)-1-{(2S)-2-amino-2-[8-(4-trifluoromethyl-benzoyl)-8-aza-bicyclo[3.2.1]oct-3-yl]-exo-ethanoyl}-pyrrolidin-2-carboxylate trifluoro acetic acid], the melting point fell in the range of 173 to 175 °C. Moreover, at human recombinant DPP-IV, the inhibition at 1 µM was found to be 41%.
The compound `Cl.N[C@H](C(=O)N1CCC[C@H]1c1nn[nH]n1)C1CC2CCC(C1)N2C(=O)c1ccc(C(F)(F)F)cc1` (stereo partly drawn) [Compound 13, (2S)-1-{(2S)-2-Amino-2-[8-(4-trifluoromethyl-benzoyl)-8-aza-bicyclo[3.2.1]oct-3-yl]-exo-ethanoyl}-2-(2H-tetrazol-5-yl)pyrrolidine hydrochloride] came in with a melting point of 244 to 246 °C. Moreover, the inhibition at 1 µM on human recombinant DPP-IV was found to be 21%.
